In the supplement of paper PMC10307832:

Tests used:
Test in all cases: relative viability (nuclei count vs DMSO), 5 days (fraction); higher = more cells survive
[1] = compound: Cc1cnc(CNC(=O)c2c(=O)c3ccc(N4CCCN(C)CC4)nc3n3c2sc2ccccc23)cn1 [CX-5461] + CC(=O)c1c(C)c2cnc(Nc3ccc(N4CCNCC4)cn3)nc2n(C2CCCC2)c1=O [Palbociclib] (partner 0.5 µM)
Summary of the method: (§1)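 Lung cancer cell lines in 1536-well plates were dosed by pin tool the day after seeding, either with one drug alone or with a fixed anchor-drug dose plus five library-drug doses (not always all listed) in √10 steps. After 5 days, cells were fixed and their nuclei stained in one step (final 0.05% Triton X-100, 1% formaldehyde, 1 ug/ml Hoechst), then counted on 4× images. Relative viability is the nuclei count in treated wells divided by that in vehicle wells. Values are medians of duplicate plates.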

[2] = compound: Cc1cnc(CNC(=O)c2c(=O)c3ccc(N4CCCN(C)CC4)nc3n3c2sc2ccccc23)cn1 [CX-5461] + CCNC(=O)c1noc(-c2cc(C(C)C)c(O)cc2O)c1-c1ccc(CN2CCOCC2)cc1 [Luminespib] (partner 0.01 µM)
Summary of the method: as §1

[3] = compound: Cc1cnc(CNC(=O)c2c(=O)c3ccc(N4CCCN(C)CC4)nc3n3c2sc2ccccc23)cn1 [CX-5461] + NC(=O)Nc1cc(-c2cccc(F)c2)sc1C(=O)N[C@H]1CCCNC1 [AZD7762] (partner 0.2 µM)
Summary of the method: as §1

[4] = compound: O=C(Nc1cc(C(F)(F)F)cc(C(F)(F)F)c1)c1cc(Cl)ccc1O [IMD-0354] + CC(=O)c1c(C)c2cnc(Nc3ccc(N4CCNCC4)cn3)nc2n(C2CCCC2)c1=O [Palbociclib] (partner 0.5 µM)
Summary of the method: as §1

Cell Line	relative viability ([1]; first compound 0.01 µM)	relative viability ([1]; first compound 0.03162 µM)	relative viability ([1]; first compound 0.1 µM)	relative viability ([1]; first compound 0.3162 µM)	relative viability ([1]; first compound 1 µM)	relative viability ([2]; first compound 0.01 µM)	relative viability ([2]; first compound 0.03162 µM)	relative viability ([2]; first compound 0.1 µM)	relative viability ([2]; first compound 0.3162 µM)	relative viability ([2]; first compound 1 µM)	relative viability ([3]; first compound 0.01 µM)	relative viability ([3]; first compound 0.03162 µM)	relative viability ([3]; first compound 0.1 µM)	relative viability ([3]; first compound 0.3162 µM)	relative viability ([3]; first compound 1 µM)	relative viability ([4]; first compound 0.04 µM)	relative viability ([4]; first compound 0.1265 µM)	relative viability ([4]; first compound 0.4 µM)	relative viability ([4]; first compound 1.265 µM)	relative viability ([4]; first compound 4 µM)
HCC-44	0.906	1.05	0.969	0.926	0.953	1.11	1.26	0.714	0.834	0.208	1.02	1.06	0.952	0.963	0.967	1.06	0.964	0.922	0.661	0.452
HCC-827	0.452	0.529	0.538	0.437	0.582	0.875	0.69	0.921	0.588	0.791	0.193	0.195	0.193	0.22	0.182	0.514	0.491	0.407	0.36	0.222
NCI-H1623						0.528	0.542	0.515	0.536	0.51										
NCI-H2347	0.424	0.437	0.427	0.407	0.404	0.563	0.413	0.753	0.327	0.341	0.825	0.716	0.688	0.767	0.605	0.39	0.418	0.362	0.41	0.405
PC-14	0.467	0.466	0.239	0.492	0.0872	0.14	0.163	0.222	0.204	0.124	0.393	0.455	0.351	0.407	0.227	0.574	0.533	0.317	0.129	0.189
NCI-H1651	0.455	0.517	0.536	0.513	0.526	0.827	0.682		0.603	0.171	0.48	0.491	0.328	0.588	0.143	0.504	0.507	0.415	0.516	0.182
HARA	0.24	0.227	0.331	0.228	0.253	0.711	1.15	1.09		0.392	0.318	0.234	0.361	0.202	0.294	0.237	0.202	0.314	0.195	0.204
NCI-H1650	0.374	0.364	0.35	0.289	0.151	0.181	0.161	0.211	0.215	0.193						0.192	0.389	0.311	0.127	0.181
NCI-H1793	0.307	0.306	0.345	0.32	0.283	0.199	0.249	0.131		0.194	0.61	0.44	0.313	0.391	0.168	0.298	0.317	0.211	0.191	0.225
SK-LU-1	0.412	0.407	0.376	0.388	0.358	0.22	0.185	0.204		0.166						0.398	0.394	0.319	0.239	0.296
LU99A	0.411	0.434	0.389	0.322	0.416	0.187	0.218	0.235	0.241	0.242	0.44	0.303	0.212	0.245	0.122	0.295	0.418	0.325	0.279	0.179
NCI-H1355	0.424	0.467	0.41	0.417	0.388	0.843	0.728	0.753	0.706	0.814	0.75	0.833	0.613	0.78	0.288	0.385	0.41	0.378	0.195	0.253
HCC-78	0.503	0.453	0.444	0.508	0.429						0.862	0.695	0.601	0.596	0.614	0.538	0.506	0.322	0.383	0.424
NCI-H1563						0.47	0.595	0.438	0.565	0.498										
HCC-15	0.705	0.759	0.808	0.725	0.592	0.236	0.331	0.305	0.359	0.216	1.24	1.43	1.22	1.15	1.23	0.733	0.664	0.627	0.289	0.1
EKVX	0.399	0.396	0.406		0.298	0.868	0.91	0.728	0.843	0.689	0.778	0.687	0.763		0.45	0.383	0.343		0.29	0.215
NCI-H2087	0.179	0.224	0.258	0.254	0.268	0.184	0.166	0.15	0.158	0.178	1.22	1.42	1.44	1.43	1.13	0.238	0.196	0.21	0.104	0.0948
NCI-H1395	0.624	0.599	0.586	0.572	0.498	0.669	0.596	0.677	0.667	0.644	0.377	0.328	0.382	0.384	0.337	0.679	0.682	0.656	0.397	0.418
NCI-H1437	0.278	0.328	0.346	0.308	0.279	1.15	1.2		1.08	0.966	1.1	1.05	1.11	1.09	1.04	0.338	0.29	0.166	0.141	0.162
COR-L23	0.27	0.269	0.233	0.234	0.125	0.641	0.597	0.512	0.547	0.333						0.303	0.278	0.185	0.122	0.12

Cell Line	relative viability ([1]; first compound 0.01 µM)	relative viability ([1]; first compound 0.03162 µM)	relative viability ([1]; first compound 0.1 µM)	relative viability ([1]; first compound 0.3162 µM)	relative viability ([1]; first compound 1 µM)	relative viability ([2]; first compound 0.01 µM)	relative viability ([2]; first compound 0.03162 µM)	relative viability ([2]; first compound 0.1 µM)	relative viability ([2]; first compound 0.3162 µM)	relative viability ([2]; first compound 1 µM)	relative viability ([3]; first compound 0.01 µM)	relative viability ([3]; first compound 0.03162 µM)	relative viability ([3]; first compound 0.1 µM)	relative viability ([3]; first compound 0.3162 µM)	relative viability ([3]; first compound 1 µM)	relative viability ([4]; first compound 0.04 µM)	relative viability ([4]; first compound 0.1265 µM)	relative viability ([4]; first compound 0.4 µM)	relative viability ([4]; first compound 1.265 µM)	relative viability ([4]; first compound 4 µM)
ABC-1	0.675		0.879	0.367	0.918	0.531	0.691	0.521	0.402	0.303	0.753	0.777	0.845		0.608	0.638	0.778	0.69		0.432
SW 900	0.533	0.538		0.621	0.519	0.171	0.162	0.19	0.18	0.176	0.657	0.627		0.544	0.311	0.517	0.629	0.478	0.187	0.248
NCI-H838	0.231	0.23	0.224	0.212	0.253	0.299	0.301	0.36		0.179	0.971	0.941	1.01	0.698	0.696	0.223	0.23	0.178	0.186	0.151
NCI-H1648	0.32	0.267	0.254	0.274	0.284						0.647	0.785	0.655	0.771	0.592	0.278	0.227	0.224	0.21	0.259
A-427	0.526	0.533	0.491	0.329	0.425	0.965	0.899	0.953		0.721	0.807	0.637	0.612	0.627	0.408	0.516	0.525	0.441	0.157	0.158
NCI-H1792	0.608	0.719	0.736	0.736	0.602	0.57	0.48	0.432	0.458	0.497	0.838	0.677	0.5	0.667	0.0872	0.69	0.61	0.258	0.579	0.431
LCLC-97TM1	0.211	0.254	0.198	0.208	0.227	0.865	0.84	0.889		0.703	0.279	0.424	0.177		0.237	0.227	0.225	0.111	0.174	0.103
NCI-H1703												0.11	0.104		0.107					
LCLC-103H	0.496	0.493	0.458	0.466	0.464	1.03	1.08	1.01	1.14	0.975	0.823	0.829	0.819	0.68	0.762	0.469	0.468	0.459	0.386	0.331
SW 1573	0.343	0.388	0.125	0.371	0.109	0.295	0.163	0.164	0.187	0.0965						0.533	0.315	0.237	0.147	0.121
COR-L 105	0.414	0.403	0.393	0.319	0.357	0.839	0.703	0.907	0.667	0.699						0.404	0.395	0.394	0.33	0.284
HCC-366	0.451	0.546	0.355	0.308	0.287						0.285	0.254	0.177	0.117	0.0411	0.474	0.535	0.259	0.0918	0.0749
SK-MES-1	0.299	0.308	0.281	0.342	0.249	0.801	0.975	0.695	0.735	0.304						0.337	0.286	0.317	0.232	0.221
NCI-H596						1.07	0.912	1.17	1.12	1.12	1.07	1.01	0.965	1.07	0.515					
NCI-H2228	0.709	0.612	0.563	0.73	0.115	0.148	0.147	0.196	0.172	0.101						0.618	0.618	0.683	0.21	0.322
NCI-H661	0.418	0.374	0.368	0.367	0.337	0.928	0.879	0.792	0.575	0.433						0.397	0.385	0.369	0.276	0.253
NCI-H520	0.219	0.212	0.25	0.247	0.176	0.195	0.194	0.202	0.262	0.218						0.199	0.22	0.215	0.136	0.121
NCI-H2023	0.413	0.373		0.309	0.0908	0.675	0.318		0.314	0.0698						0.495	0.346	0.273	0.316	0.241
NCI-H2009	0.214	0.201	0.272	0.215	0.16	1.08	1.02	0.887	0.985	0.508						0.179	0.222	0.191	0.103	0.112
